According to patent US20140303164A1, “THERAPEUTIC COMPOUNDS” (Gilead Sciences, Inc., priority 2013, published 2014):

Tests used:
[1] = Test B: Cytotoxicity Assay; assay type: cell-based; details: human, uninfected MT-4 cells, same protocol as Test A
Description: (§1) MT-4 cells were next mixed with HIV-IIIb at an m.o.i of 0.003 for 1 hour, after which time 35 μL of virus/cell mixture (2000 cells) was immediately added to each well containing 40 μL of diluted compound. The plates were then incubated at 37° C. for 5 days. […] Cell lysis was carried out by incubating at room temperature for 10 min and then chemiluminescence was read.
Test B: Cytotoxicity Assay
Compound cytotoxicity and the corresponding CC50 values was determined using the same protocol as described in the antiviral assay (Test A) except that uninfected cells were used.

[2] = system: HIV-IIIb; test: Test A: Antiviral Assay in MT4 Cells; assay type: cell-based, HIV-1; details: for inhibition at 0.2 µM / inhibition at 2 µM: Human immunodeficiency virus 1, IIIB, MT4, 120 h; for inhibition at 0.2 µM: read-out: % inhibition at 0.2 μM; for inhibition at 2 µM: read-out: % inhibition at 2 μM
Description: Test A: Antiviral Assay in MT4 Cells
as §1

`O=C(Cn1nc(C(F)F)c2c1C(F)(F)CCC2(F)F)N[C@@H](Cc1cc(F)cc(F)c1)c1nc(-c2c[nH]nn2)ccc1-c1cnc2[nH]ccc2c1` [Compound 16C, (S)—N-(1-(3-(1H-pyrrolo[2,3-b]pyridin-5-yl)-6-(1H-1,2,3-triazol-4-yl)pyridin-2-yl)-2-(3,5-difluorophenyl)ethyl)-2-(3-(difluoromethyl)-4,4,7,7-tetrafluoro-4,5,6,7-tetrahydro-1H-indazol-1-yl)acetamide] showed a CC50 at 5 days [1] of 3.67 µM, an inhibition at 0.2 µM [2] of 23% and an inhibition at 2 µM [2] of 65%.
`Cn1nc(NS(C)(=O)=O)c2cccc(-c3ccc(C#CC(C)(C)O)nc3[C@H](Cc3cc(F)cc(F)c3)NC(=O)Cn3nc(C(F)F)c4c3C(F)(F)[C@@H]3C[C@H]43)c21` [Compound 20, (S)—N-(1-(3-(1-methyl-3-(methylsulfonamido)-1H-indazol-7-yl)-6-(3-hydroxy-3-methylbut-1-ynyl)pyridin-2-yl)-2-(3,5-difluorophenyl)ethyl)-2-((3b-S,4aR)-5,5-difluoro-3-(difluoromethyl)-3b,4,4a,5-tetrahydro-1H-cyclopropa[3,4]cyclopenta[1,2-c]pyrazol-1-yl)acetamide] showed a CC50 at 5 days [1] of 11.2 µM, an inhibition at 0.2 µM [2] of 96% and an inhibition at 2 µM [2] of 80%.
Work on `CC(C)(O)C#Cc1ncc(-c2ccc3c(c2)C(=O)NC3)c([C@H](Cc2cc(F)cc(F)c2)NC(=O)Cn2nc(C(F)F)c3c2C(F)(F)CCC3(F)F)n1` [Compound 21H, (S)-2-(3-(difluoromethyl)-4,4,7,7-tetrafluoro-4,5,6,7-tetrahydro-1H-indazol-1-yl)-N-(2-(3,5-difluorophenyl)-1-(2-(3-hydroxy-3-methylbut-1-yn-1-yl)-5-(3-oxoisoindolin-5-yl)pyrimidin-4-yl)ethyl)acetamide] yielded a CC50 at 5 days [1] of 7.63 µM, an inhibition at 0.2 µM [2] of 92% and an inhibition at 2 µM [2] of 92%.
For `CC(C)(O)C#Cc1ncc(-c2ccc3c(c2)C(=O)NC3)c([C@H](Cc2cc(F)cc(F)c2)NC(=O)Cn2nc(C(F)(F)F)c3c2C(F)(F)[C@@H]2C[C@H]32)n1` [Compound 22C, 2-((3bS,4aR)-5,5-difluoro-3-(trifluoromethyl)-3b,4,4a,5-tetrahydro-1H-cyclopropa[3,4]cyclopenta[1,2-c]pyrazol-1-yl)-N—((S)-2-(3,5-difluorophenyl)-1-(2-(3-hydroxy-3-methylbut-1-yn-1-yl)-5-(3-oxoisoindolin-5-yl)pyrimidin-4-yl)ethyl)acetamide], the CC50 at 5 days [1] was 4.95 µM, the inhibition at 0.2 µM [2] was 92% and the inhibition at 2 µM [2] was 92%.
`CC(C)(O)C#Cc1ncc(-c2ccc(F)c(C(N)=O)c2)c([C@H](Cc2cc(F)cc(F)c2)NC(=O)Cn2nc(C(F)(F)F)c3c2C(F)(F)[C@@H]2C[C@H]32)n1` [Compound 23B, 5-(4-((S)-1-(2-((3bS,4aR)-5,5-difluoro-3-(trifluoromethyl)-3b,4,4a,5-tetrahydro-1H-cyclopropa[3,4]cyclopenta[1,2-c]pyrazol-1-yl)acetamido)-2-(3,5-difluorophenyl)ethyl)-2-(3-hydroxy-3-methylbut-1-yn-1-yl)pyrimidin-5-yl)-2-fluorobenzamide] showed a CC50 at 5 days [1] of 7.62 µM, an inhibition at 0.2 µM [2] of 83% and an inhibition at 2 µM [2] of 88%.
`CC(C)(O)C#Cc1ccc(-c2cccc3c(=O)[nH]ccc23)c([C@H](Cc2cc(F)cc(F)c2)NC(=O)Cn2nc(C(F)(F)F)c3c2C(F)(F)[C@@H]2C[C@H]32)n1` [Compound 24B, 2-((3bS,4aR)-5,5-difluoro-3-(trifluoromethyl)-3b,4,4a,5-tetrahydro-1H-cyclopropa[3,4]cyclopenta[1,2-c]pyrazol-1-yl)-N—((S)-2-(3,5-difluorophenyl)-1-(6-(3-hydroxy-3-methylbut-1-yn-1-yl)-3-(1-oxo-1,2-dihydroisoquinolin-5-yl)pyridin-2-yl)ethyl)acetamide] gave a CC50 at 5 days [1] of 5.92 µM, an inhibition at 0.2 µM [2] of 78% and an inhibition at 2 µM [2] of 83%.
In the case of `Cn1nc(N)c2cccc(-c3ccc(C#CC(C)(C)O)nc3[C@H](Cc3cc(F)cc(F)c3)NC(=O)Cn3nc(C(F)(F)F)c4c3C(F)(F)[C@@H]3C[C@H]43)c21` [Compound 25, N—((S)-1-(3-(3-amino-1-methyl-1H-indazol-7-yl)-6-(3-hydroxy-3-methylbut-1-yn-1-yl)pyridin-2-yl)-2-(3,5-difluorophenyl)ethyl)-2-((3b-S,4aR)-5,5-difluoro-3-(trifluoromethyl)-3b,4,4a,5-tetrahydro-1H-cyclopropa[3,4]cyclopenta[1,2-c]pyrazol-1-yl)acetamide], the CC50 at 5 days [1] is reported as 9.14 µM, the inhibition at 0.2 µM [2] is reported as 89% and the inhibition at 2 µM [2] is reported as 89%.
With `CC(C)(O)C#Cc1ccc(-c2ccc3n[nH]c(=O)n3c2)c([C@H](Cc2cc(F)cc(F)c2)NC(=O)Cn2nc(C(F)(F)F)c3c2C(F)(F)[C@@H]2C[C@H]32)n1` [Compound 26, 2-((3bS,4aR)-5,5-difluoro-3-(trifluoromethyl)-3b,4,4a,5-tetrahydro-1H-cyclopropa[3,4]cyclopenta[1,2-c]pyrazol-1-yl)-N—((S)-2-(3,5-difluorophenyl)-1-(6-(3-hydroxy-3-methylbut-1-yn-1-yl)-3-(3-oxo-2,3-dihydro-[1,2,4]triazolo[4,3-a]pyridin-6-yl)pyridin-2-yl)ethyl)acetamide] the CC50 at 5 days [1] was 10 µM, the inhibition at 0.2 µM [2] was 84% and the inhibition at 2 µM [2] was 100%.
For `Cc1c(-c2ccc(C#CC(C)(C)O)nc2[C@H](Cc2cc(F)cc(F)c2)NC(=O)Cn2nc(C(F)(F)F)c3c2C(F)(F)[C@@H]2C[C@H]32)ccc2n[nH]c(=O)n12` [Compound 27G, 2-((3bS,4aR)-5,5-difluoro-3-(trifluoromethyl)-3b,4,4a,5-tetrahydro-1H-cyclopropa[3,4]cyclopenta[1,2-c]pyrazol-1-yl)-N—((S)-2-(3,5-difluorophenyl)-1-(6-(3-hydroxy-3-methylbut-1-yn-1-yl)-3-(5-methyl-3-oxo-2,3-dihydro-[1,2,4]triazolo[4,3-a]pyridin-6-yl)pyridin-2-yl)ethyl)acetamide], the CC50 at 5 days [1] was 10.4 µM, the inhibition at 0.2 µM [2] was 89% and the inhibition at 2 µM [2] was 89%.
With `CC(C)(O)C#Cc1ccc(-c2ccc(F)c(C(N)=O)c2)c([C@H](Cc2cc(F)cc(F)c2)NC(=O)Cn2nc(C(F)F)c3c2C(F)(F)CCC3(F)F)n1` [Compound 28, (S)-5-(2-(1-(2-(3 (difluoromethyl)-4,4,7,7-tetrafluoro-4,5,6,7-tetrahydro-1H-indazol-1-yl)acetamido)-2-(3,5-difluorophenyl)ethyl)-6-(3-hydroxy-3-methylbut-1-yn-1-yl)pyridin-3-yl)-2-fluorobenzamide] the CC50 at 5 days [1] was 12.2 µM, the “Response at 0.2 μM” value ([2]; percent inhibition of virus-induced cell killing at 0.2 μM, comparison with previously published compounds (WO 2013/006738)) was 71% and the “Response at 2 μM” value ([2]; percent inhibition of virus-induced cell killing at 2 μM, comparison with previously published compounds (WO 2013/006738)) was 84%.
In the case of `CC(C)(O)C#Cc1ccc(-c2cc(F)c(F)c(C(N)=O)c2)c([C@H](Cc2cc(F)cc(F)c2)NC(=O)Cn2nc(C(F)(F)F)c3c2C(F)(F)[C@@H]2C[C@H]32)n1` [Compound 30, 5-(2-((S)-1-(2-((3bS,4aR)-5,5-difluoro-3-(trifluoromethyl)-3b,4,4a,5-tetrahydro-1H-cyclopropa[3,4]cyclopenta[1,2-c]pyrazol-1-yl)acetamido)-2-(3,5-difluorophenyl)ethyl)-6-(3-hydroxy-3-methylbut-1-yn-1-yl)pyridin-3-yl)-2,3-difluorobenzamide], the CC50 at 5 days [1] is reported as 8.58 µM, the inhibition at 0.2 µM [2] is reported as 1% and the inhibition at 2 µM [2] is reported as 91%.
